The values that follow come from ChEMBL document CHEMBL1201862, “PubChem BioAssay data set” (2004).

Some test systems named below: 786-0; A549; BT-549; EKVX; HCC 2998; HCT-116; HCT-15; Hs-578T; IGROV-1; LOX IMVI; MCF7; MOLT-4; NCI-H522; NCI/ADR-RES; OVCAR-4; PC-3; RPMI-8226; SF-539; UO-31; T47D.
Holding throughout (experiment): NCI anticancer screen, dose series, 48 h

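1) Cells in 96-well plates. 2) Compound, 48 h, 5 concentrations. 3) Linear interpolation between surrounding doses. 4) Unreached endpoint = highest concentration. Here, GI50 denotes the concentration required for 50% inhibition of growth.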 Calls of active or inactive are those of the source. Rule as the data show it: active = GI50 up to about 1.1 µM and inactive = higher. Some results are limits rather than exact numbers.

Take `NCCCCC(NC(=O)C(N)Cc1ccc(O)cn1)C(=O)O` (centres undefined): the GI50 in the test with 786-0, with A549, in the test on BT-549, in the test on EKVX, in the test on HCC 2998 and in the test on HCT-116 was > 100 µM (inactive) throughout. Besides, the GI50 in the test with HCT-15 is greater than 100 µM; in the test with Hs-578T it was > 100 µM (inactive); with IGROV-1, > 100 µM (inactive); in the test on LOX IMVI, > 100 µM (inactive); in the test on MCF7, > 100 µM (inactive); with MOLT-4, > 100 µM (inactive). For the same molecule, the GI50 with NCI-H522, in the test with NCI/ADR-RES, in the test with OVCAR-4, in the test on PC-3, with RPMI-8226 and with SF-539 was > 100 µM (inactive) throughout. For the same molecule, the GI50 in the test with UO-31 was > 100 µM (inactive).

Consider `COc1cc(/C=C/C(=O)O)ccc1O` [FERULATE], for which the GI50 with 786-0 was > 100 µM (inactive); with A549, > 100 µM (inactive); with EKVX, > 100 µM (inactive); with HCC 2998, > 100 µM (inactive); in the test on HCT-116, > 100 µM (inactive); in the test with HCT-15, greater than 100 µM. Moreover, the GI50 in the test on Hs-578T, in the test with IGROV-1, in the test on LOX IMVI, in the test on MCF7, with MOLT-4 and in the test with NCI-H522 was > 100 µM (inactive) in each case. Also, the GI50 with NCI/ADR-RES, with OVCAR-4, in the test with PC-3, in the test on RPMI-8226, in the test with SF-539 and with T47D was > 100 µM (inactive) each time. In the test with UO-31, the GI50 is > 100 µM (inactive).

Turning to `OC12COc3ccccc3C1Oc1ccccc1C2` (centres undefined), the GI50 with 786-0, with A549, with BT-549, in the test on EKVX, in the test with HCC 2998 and with HCT-116 was > 100 µM (inactive) in each case. The GI50 is greater than 100 µM in the test with HCT-15; > 100 µM (inactive) with IGROV-1; > 100 µM (inactive) with LOX IMVI; > 100 µM (inactive) in the test on MCF7; > 100 µM (inactive) with MOLT-4; > 100 µM (inactive) with NCI-H522. In addition, the GI50 with NCI/ADR-RES, in the test on OVCAR-4, in the test with PC-3, in the test on RPMI-8226, in the test on SF-539 and with T47D was > 100 µM (inactive) in each case. The GI50 with UO-31 was > 100 µM (inactive).

In the case of `C=CCN1C(=O)CC(=O)N(NC2=NNC3(C(=O)N2)c2ccccc2-c2ccccc23)C1=S`, the GI50 was 38.5 µM (inactive) in the test with 786-0; 34.2 µM (inactive) with A549; 45 µM (inactive) in the test with BT-549; 29.4 µM (inactive) with EKVX; 38.6 µM (inactive) in the test on HCC 2998; 28.4 µM (inactive) in the test on HCT-116. Moreover, the GI50 is 35.7 µM in the test on HCT-15; 13.6 µM (inactive) in the test with Hs-578T; 38.9 µM (inactive) in the test with IGROV-1; 42.7 µM (inactive) with LOX IMVI; 25.8 µM (inactive) in the test on MCF7; 32.6 µM (inactive) with NCI-H522. Also, the GI50 in the test with NCI/ADR-RES is 25.4 µM (inactive); with OVCAR-4 it was 29.4 µM (inactive); in the test on PC-3, 23.9 µM (inactive); in the test on SF-539, 59.4 µM (inactive); in the test with UO-31, 31.8 µM (inactive).

For `CCN(CC)CCC(=O)/C=C/c1ccc(Cl)c(Cl)c1`, the GI50 with 786-0 is 3.31 µM (inactive); in the test on A549, 2.78 µM (inactive); with BT-549, 4.49 µM (inactive); in the test with EKVX it was > 10 µM (inactive); in the test with HCC 2998 it was 3.36 µM (inactive); in the test with HCT-116 it was 1.71 µM (inactive). Further, the GI50 with HCT-15 was 3.66 µM; in the test with MCF7 it was 3.36 µM (inactive); in the test on MOLT-4, 3.01 µM (inactive); with NCI-H522, 1.58 µM (inactive); in the test on NCI/ADR-RES, 1.99 µM (inactive); in the test with OVCAR-4, 9.35 µM (inactive). Also, the GI50 in the test on PC-3 is 4.31 µM (inactive); in the test with RPMI-8226, 0.127 µM (active); with T47D it was 2.33 µM (inactive).

In the case of `O=C1CCCc2cc3c(cc21)CC1(Cc2ccccc2C1)C3`, the GI50 was 6.28 µM (inactive) in the test on 786-0; 6.17 µM (inactive) in the test on A549; 9.14 µM (inactive) in the test on EKVX; 16.1 µM (inactive) in the test on HCC 2998; 3.9 µM (inactive) in the test on HCT-116; 3.59 µM with HCT-15. Also, the GI50 was 7.59 µM (inactive) in the test on Hs-578T; 7.43 µM (inactive) in the test with IGROV-1; 6.53 µM (inactive) with LOX IMVI; 3.9 µM (inactive) in the test on MCF7; 3.52 µM (inactive) in the test on MOLT-4; 3.94 µM (inactive) in the test on NCI-H522. Moreover, the GI50 with NCI/ADR-RES was 6 µM (inactive); with OVCAR-4 it was 6.31 µM (inactive); in the test on PC-3, > 100 µM (inactive); with RPMI-8226, 4.35 µM (inactive); in the test on SF-539, 3.89 µM (inactive); in the test on T47D, 5.24 µM (inactive). Besides, the GI50 in the test with UO-31 was 1.46 µM (inactive).

As for `Cc1ccc(S(=O)(=O)N2CCSCCN(S(=O)(=O)c3ccc(C)cc3)CCN(S(=O)(=O)c3ccc(C)cc3)CC2)cc1`, the GI50 in the test with 786-0 was 16.7 µM (inactive); in the test with A549 it was > 100 µM (inactive); with BT-549, 27.8 µM (inactive); with EKVX, 47.5 µM (inactive); in the test on HCC 2998 it was > 100 µM (inactive); in the test with HCT-116 it was 78.5 µM (inactive). The GI50 was 25.7 µM (inactive) with Hs-578T; 56.2 µM (inactive) in the test with IGROV-1; 59.7 µM (inactive) in the test on MCF7; > 100 µM (inactive) in the test on MOLT-4; > 100 µM (inactive) in the test on NCI/ADR-RES; > 100 µM (inactive) in the test on OVCAR-4. For the same molecule, the GI50 is > 100 µM (inactive) in the test on RPMI-8226, 17.6 µM (inactive) in the test on SF-539, 8.75 µM (inactive) in the test with T47D and 92.7 µM (inactive) with UO-31.

As to `CCOC(=O)c1c(N)n(-c2ccccc2)c(=S)n(-c2ccccc2)c1=O`, the GI50 was > 100 µM (inactive) in the test with 786-0; > 100 µM (inactive) with A549; > 100 µM (inactive) in the test with BT-549; > 100 µM (inactive) in the test with HCC 2998; greater than 100 µM in the test with HCT-15; > 100 µM (inactive) with Hs-578T. For the same molecule, the GI50 in the test on IGROV-1, in the test on LOX IMVI, in the test on MCF7, in the test with MOLT-4, in the test with NCI-H522 and in the test with OVCAR-4 was > 100 µM (inactive) throughout. The GI50 with RPMI-8226, in the test with T47D and with UO-31 was > 100 µM (inactive) in each case.

Turning to `CCOc1ccc(C(=O)/C=C2/Nc3ccccc3N/C2=C/C(=O)c2ccc(OCC)cc2)cc1`, the GI50 in the test with 786-0 is 80 µM (inactive); in the test on A549, > 100 µM (inactive); in the test on BT-549, > 100 µM (inactive); with EKVX, > 100 µM (inactive); in the test with HCC 2998, > 100 µM (inactive); in the test with HCT-116, 78.2 µM (inactive). The GI50 in the test with HCT-15 was 96.4 µM; in the test with Hs-578T it was 37.6 µM (inactive); with IGROV-1 it was 57.9 µM (inactive); with LOX IMVI, > 100 µM (inactive); with MCF7 it was > 100 µM (inactive); in the test with MOLT-4, 81.3 µM (inactive). For the same molecule, the GI50 was > 100 µM (inactive) in the test with NCI-H522; 72.3 µM (inactive) in the test with OVCAR-4; > 100 µM (inactive) in the test on PC-3; > 100 µM (inactive) in the test with RPMI-8226; > 100 µM (inactive) in the test on SF-539; > 100 µM (inactive) in the test on T47D. In the test on UO-31, the GI50 is > 100 µM (inactive).

On to `O=C1Nc2c(Cl)cc(Cl)cc2/C1=N/NC(=O)c1ccncc1`, for which the GI50 with 786-0 was 17.4 µM (inactive); in the test on A549, > 100 µM (inactive); in the test on BT-549, 37.8 µM (inactive); with EKVX, 28.5 µM (inactive); in the test on HCC 2998 it was 44.1 µM (inactive); with HCT-116, 19.1 µM (inactive). In addition, the GI50 was 32.1 µM in the test on HCT-15; 40.6 µM (inactive) in the test with Hs-578T; 22.9 µM (inactive) in the test on IGROV-1; 16.9 µM (inactive) with LOX IMVI; 32.9 µM (inactive) in the test with MCF7; 25.2 µM (inactive) in the test with MOLT-4. Besides, the GI50 in the test with NCI/ADR-RES was 23.1 µM (inactive); in the test on OVCAR-4, 22.2 µM (inactive); in the test on PC-3 it was 15.7 µM (inactive); in the test with SF-539 it was 21.6 µM (inactive); in the test on UO-31 it was 27.9 µM (inactive).

For `CC1=C(c2ccccc2)NC(=S)C(C)C(c2ccccc2)=N1` (centres undefined), the GI50 in the test with 786-0 was 74.5 µM (inactive); in the test on A549 it was 40.1 µM (inactive); in the test with BT-549 it was 23.7 µM (inactive); with EKVX, 42.3 µM (inactive); with HCC 2998, 34.3 µM (inactive); in the test on HCT-116, 27.5 µM (inactive). Besides, the GI50 in the test with HCT-15 is 25.8 µM; in the test on IGROV-1, 36.9 µM (inactive); with LOX IMVI, 30 µM (inactive); with MCF7, 27 µM (inactive); with MOLT-4 it was 15.2 µM (inactive); in the test with NCI/ADR-RES, 22.8 µM (inactive). In addition, the GI50 with OVCAR-4 is 17.2 µM (inactive); with RPMI-8226, 15.4 µM (inactive); with SF-539, 16.3 µM (inactive); in the test with T47D, 15.8 µM (inactive); in the test with UO-31, 19.6 µM (inactive).

`CC(=O)Nc1cc(Nc2cc(O)nc(O)n2)ccc1C`: the GI50 in the test with 786-0, in the test on A549, with BT-549, in the test with EKVX, in the test with HCC 2998 and in the test with HCT-116 was > 100 µM (inactive) each time. Also, the GI50 in the test with HCT-15 is greater than 100 µM; in the test on Hs-578T it was > 100 µM (inactive); with IGROV-1, > 100 µM (inactive); with LOX IMVI, > 100 µM (inactive); in the test with MCF7, > 100 µM (inactive); with NCI/ADR-RES, > 100 µM (inactive). The GI50 with OVCAR-4, in the test on PC-3, with RPMI-8226, in the test with SF-539 and in the test on UO-31 was > 100 µM (inactive) each time.
